US11192852B2, “Pyrazolyl and pyrimidinyl tricyclic enones as antioxidant inflammation modulators” (REATA PHARMACEUTICALS, INC., priority 2010, dated 2021)

These molecules were tested on Nrf2 transcription factor (human NQO1-ARE reporter) in HuH7 cells (assay: NQO1-ARE Luciferase Reporter Assay). Details: Huh-7, 62.5 nM, 18 h, fold over DMSO vehicle, Firefly normalized to Renilla.
Format: cell-based
Source text: NQO1-ARE Luciferase Reporter Assay.
This assay allows for quantitative assessment of the endogenous activity of the Nrf2 transcription factor in cultured mammalian cells. Expression of Firefly luciferase from NQO1-ARE luciferase reporter plasmid is controlled by binding of Nrf2 to a specific enhancer sequence corresponding to the antioxidant response element (ARE) that was identified in the promoter region of the human NADPH:quinone oxidoreductase 1 (NQO1) gene (Xie et al., 1995). The plasmid was constructed by inserting a sequence:
5′-[…]-3′ (SEQ ID NO:1) encompassing the human NQO1-ARE into the pLuc-MCS vector using HindIII/XhoI cloning sites (GenScript Corp., Piscataway, N.J.). The assay is performed in HuH7 cells maintained in DMEM (Invitrogen) supplemented with 10% FBS and 100 U/ml (each) of penicillin and streptomycin. For the assay, cells are plated in 96-well plates at 17,000 cells per well. Twenty four hours later, the cells are co-transfected with 50 ng each of NQO1-ARE reporter plasmid and pRL-TK plasmid using Lipofectamine 2000 transfection reagent (Invitrogen). pRL-TK plasmid constitutively expresses Renilla luciferase and is used as an internal control for normalization of transfection levels. Thirty hours after transfection, the cells are treated with compounds (at concentrations ranging from 0 to 1 μM) for eighteen hours. Firefly and Renilla luciferase activity is assayed by Dual-Glo Luciferase Assay (Promega Corp., Madison, Wis.), the luminescence signal is measured on an L-Max II luminometer (Molecular Devices). Firefly luciferase activity is normalized to the Renilla activity, and fold induction over a vehicle control (DMSO) of normalized Firefly activity is calculated. The fold induction at 62.5 nM concentration is used for comparing relative potencies of compounds to induce Nrf2 transcriptional activity. See Xie T, Belinsky M, Xu Y, Jaiswal A K. ARE- and TRE-mediated regulation of gene expression. Response to xenobiotics and antioxidants. J Biol Chem. (1995) 270(12):6894-6900, which is incorporated herein by reference.

SMILES | fold induction at 0.0625 µM
Cn1nc2c(c1NC(=O)c1ccccc1)CC[C@H]1C(C)(C)C(=O)C(C#N)=C[C@]21C [TX63531] | 1.1
CC1(C)C(=O)C(C#N)=C[C@]2(C)c3nc(-c4cccnc4)ncc3CC[C@@H]12 [TX63586] | 2.9
Cn1cc(-c2c3c(nn2C)[C@@]2(C)C=C(C#N)C(=O)C(C)(C)[C@@H]2CC3)cn1 [TX63588] | 5.2
CC(C)c1c2c(nn1C)[C@@]1(C)C=C(C#N)C(=O)C(C)(C)[C@@H]1CC2 [TX63547] | 3.1
Cn1nc2c(c1-c1ccccc1F)CC[C@H]1C(C)(C)C(=O)C(C#N)=C[C@]21C [TX63519] | 2.5
Cc1cccc(-c2c3c(nn2C)[C@@]2(C)C=C(C#N)C(=O)C(C)(C)[C@@H]2CC3)c1 [TX63512] | 1.4
Cn1nc2c(c1-c1ccccc1)CC[C@H]1CC(=O)C(C#N)=C[C@]21C [TX63540] | 1.6

The molecules below were run on IFNγ-induced NO production in RAW264.7 mouse macrophages (assay: Suppression of IFNγ-induced nitric oxide production (Griess reagent)). Details: Mus musculus, RAW264.7, RAW264.7 cells, 2 h pre-treatment (0-200 nM), then IFNγ 24 h; normalized to cell viability.
Format: cell-based
Source text: Nitric Oxide Production and Cell Viability.

SMILES | IC50
Cn1nc2c(c1NC(=O)c1ccccc1)CC[C@H]1C(C)(C)C(=O)C(C#N)=C[C@]21C [TX63531] | > 200 nM
CC1(C)C(=O)C(C#N)=C[C@]2(C)c3nc(-c4cccnc4)ncc3CC[C@@H]12 [TX63586] | 22 nM
Cn1cc(-c2c3c(nn2C)[C@@]2(C)C=C(C#N)C(=O)C(C)(C)[C@@H]2CC3)cn1 [TX63588] | 33 nM
CC(C)c1c2c(nn1C)[C@@]1(C)C=C(C#N)C(=O)C(C)(C)[C@@H]1CC2 [TX63547] | 87 nM
Cn1nc2c(c1-c1ccccc1F)CC[C@H]1C(C)(C)C(=O)C(C#N)=C[C@]21C [TX63519] | 21 nM
Cc1cccc(-c2c3c(nn2C)[C@@]2(C)C=C(C#N)C(=O)C(C)(C)[C@@H]2CC3)c1 [TX63512] | 25 nM
Cn1nc2c(c1-c1ccccc1)CC[C@H]1CC(=O)C(C#N)=C[C@]21C [TX63540] | 66.8 nM
C[C@@H]1C(=O)C(C#N)=C[C@]2(C)c3nn(C)c(N4C(=O)NC(C)(C)C4=O)c3CC[C@@H]12 [TX63776] | > 200 nM
CC1(C)C(=O)C(C#N)=C[C@]2(C)c3[nH]nc(-c4ccccc4)c3CC[C@@H]12 [TX63579] | 22 nM
CCOc1nc(C)nc2c1CC[C@H]1[C@H](C)C(=O)C(C#N)=C[C@]21C [TX63773] | 6 nM
CC1(C)C(=O)C(C#N)=C[C@]2(C)c3nn(-c4[nH]nc5c4CC[C@H]4C(C)(C)C(=O)C(C#N)=C[C@]54C)cc3CC[C@H]12 [TX63466] | 10.4 nM
CC(=O)n1nc2c(c1-c1ccccc1)CC[C@H]1[C@H](C)C(=O)C(C#N)=C[C@]21C [TX63850] | 8.9 nM
CC1(C)C(=O)C(C#N)=C[C@]2(C)C(=O)c3cnn(C(C)(C)C)c3C[C@@H]12 [TX63451] | 137 nM
CC1=C2CCc3c(nn(C)c3-c3cccc(F)c3)[C@@]2(C)C=C(C#N)C1=O [TX63663] | 108 nM
COc1nc(-c2ccncc2)nc2c1CC[C@H]1[C@H](C)C(=O)C(C#N)=C[C@]21C [TX63728] | 6.7 nM
C[C@@H]1C(=O)C(C#N)=C[C@]2(C)c3nn(C)c(-c4nnn(C)n4)c3CC[C@@H]12 [TX63719] | 5.9 nM
CC(C)n1nnc(-c2c3c(nn2C)[C@@]2(C)C=C(C#N)C(=O)C(C)(C)[C@@H]2CC3)n1 [TX63734] | 43 nM
Cn1nc2c(c1C1CCCCC1)CC[C@H]1C(C)(C)C(=O)C(C#N)=C[C@]21C [TX63591] | 74 nM
Cn1ncc2c1[C@@]1(C)C=C(C#N)C(=O)C(C)(C)[C@@H]1CC2 [TX63342] | 180 nM
Cn1nc2c(c1-c1ccccc1)CC[C@H]1CC(=O)C=C[C@]21C [TX63570] | > 200 nM

SMILES | IC50
CC1(C)C(=O)C(C#N)=C[C@]2(C)c3nc(C(F)(F)F)ncc3CC[C@@H]12 [TX63567] | 43 nM
Cn1nc2c(c1C(=O)O)CC[C@H]1C(C)(C)C(=O)C(C#N)=C[C@]21C [TX63631] | > 200 nM
COc1ccccc1-c1c2c(nn1C)[C@@]1(C)C=C(C#N)C(=O)C(C)(C)[C@@H]1CC2 [TX63509] | 38 nM
Cc1nc(-c2c3c(nn2C)[C@@]2(C)C=C(C#N)C(=O)C(C)(C)[C@@H]2CC3)no1 [TX63723] | 35 nM
CC1(C)C(=O)C(C#N)=C[C@]2(C)c3nc(-c4ccncc4)ncc3CC[C@@H]12 [TX63636] | 27 nM
CN1N=C2C(C)(CC[C@H]3C(C)(C)C(=O)C(C#N)=C[C@]23C)C1=O (stereo partly drawn) [TX63692] | > 200 nM
CC1(C)C(=O)C(C#N)=C[C@]2(C)C(=O)c3cnn(-c4ccccc4)c3C[C@@H]12 [TX63456] | > 200 nM
Cc1ccc(-c2c3c(nn2C)[C@@]2(C)C=C(C#N)C(=O)C(C)(C)[C@@H]2CC3)cc1 [TX63514] | 37 nM
Cn1cnc(-c2c3c(nn2C)[C@@]2(C)C=C(C#N)C(=O)C(C)(C)[C@@H]2CC3)n1 [TX63714] | > 200 nM
Cc1cccc(-c2c3c(nn2C)[C@@]2(C)C=C(C#N)C(=O)[C@@H](C)[C@@H]2CC3)c1 [TX63650] | 6.1 nM
CC1(C)C(=O)C(C#N)=C[C@]2(C)c3c(cnn3-c3ccccc3)CC[C@@H]12 [TX63524] | 68 nM
CC1(C)C(=O)C(C#N)=C[C@]2(C)c3nn(C(C)(C)C)cc3CC[C@@H]12 [TX63450] | 148 nM
C[C@H]1C(=O)C(C#N)=C[C@@]2(C)c3nn(C)c(-c4ccccc4)c3CC[C@H]12 [TX63792] | 147 nM
CC1(C)C(=O)C(C#N)=C[C@]2(C)c3[nH]c(=O)ncc3CC[C@@H]12 [TX63553] | > 200 nM
COc1ccc(-c2ncc3c(n2)[C@@]2(C)C=C(C#N)C(=O)C(C)(C)[C@@H]2CC3)cc1 [TX63590] | 31 nM
CC1(C)C(=O)C(C#N)=C[C@]2(C)c3nn(C4CCCCC4)cc3CC[C@@H]12 [TX63444] | 140 nM
C[C@@H]1C(=O)C(C#N)=C[C@]2(C)c3nn(C)c(-c4cncnc4)c3CC[C@@H]12 [TX63748] | 23 nM
Cc1noc(-c2c3c(nn2C)[C@@]2(C)C=C(C#N)C(=O)C(C)(C)[C@@H]2CC3)n1 [TX63760] | 6.2 nM
COc1cccc(-c2c3c(nn2C)[C@@]2(C)C=C(C#N)C(=O)[C@@H](C)[C@@H]2CC3)c1 [TX63664] | 8 nM
CC(=O)n1nc2c(c1-c1ccccc1)CC[C@H]1C(C)(C)C(=O)C(C#N)=C[C@]21C [TX63611] | 22 nM

SMILES | IC50
Cc1cccc(-c2ncc3c(n2)[C@@]2(C)C=C(C#N)C(=O)C(C)(C)[C@@H]2CC3)c1 [TX63583] | 33 nM
CC1(C)C(=O)C(C#N)=C[C@]2(C)c3nn(CCO)cc3CC[C@@H]12 [TX63464] | > 200 nM
Cn1cc2c(n1)[C@@]1(C)C=C(C#N)C(=O)C(C)(C)[C@H]1C2 [TX63436] | > 200 nM
C[C@@H]1C(=O)C(C(F)(F)F)=C[C@]2(C)c3nn(C)c(-c4ccccc4)c3CC[C@@H]12 [TX63829] | 22 nM
Cn1nc2c(c1-c1nnn(Cc3ccccc3)n1)CC[C@H]1C(C)(C)C(=O)C(C#N)=C[C@]21C [TX63729] | 29 nM
C[C@@H]1C(=O)C(C#N)=C[C@]2(C)c3c(c(Br)nn3C)CC[C@@H]12 [TX63649] | 21 nM
C[C@@H]1C(=O)C(C#N)=C[C@]2(C)c3nn(C)c(-c4ccccn4)c3CC[C@@H]12 [TX63851] | 5.1 nM
CC(=O)n1cc2c(n1)[C@@]1(C)C=C(C#N)C(=O)C(C)(C)[C@@H]1CC2 [TX63463] | ≥ 205 nM
Cn1nc2c(c1-c1ccccc1)CC[C@H]1C(C)(C)C(=O)[C@]3(C#N)O[C@@H]3[C@]21C [TX63834] | 105 nM
CCOc1nc(-c2ccccc2)nc2c1CC[C@H]1[C@H](C)C(=O)C(C#N)=C[C@]21C [TX63731] | 32 nM
Cc1nc(-c2ncc3c(n2)[C@@]2(C)C=C(C#N)C(=O)C(C)(C)[C@@H]2CC3)cs1 [TX63628] | 62 nM
Cn1nc2c(c1C(=O)c1ccccc1)CC[C@H]1C(C)(C)C(=O)C(C#N)=C[C@]21C [TX63667] | 155 nM
C[C@@H]1C(=O)C(C#N)=C[C@]2(C)c3nn(C)c(Br)c3CC[C@@H]12 [TX63606] | 11 nM
C[C@@H]1C(=O)C(C#N)=C[C@]2(C)c3nn(C)c(-c4cnn(C)c4)c3CC[C@@H]12 [TX63690] | 11 nM
Cc1c2c(nn1C)[C@@]1(C)C=C(C#N)C(=O)C(C)(C)[C@@H]1CC2 [TX63637] | 45 nM
CC1(C)C(=O)C(C#N)=C[C@]2(C)c3c(cnc4c(-c5ccccc5)cnn34)CC[C@@H]12 [TX63626] | 38 nM
CC1(C)C(=O)C(C#N)=C[C@]2(C)c3nc(-c4ccccn4)ncc3CC[C@@H]12 [TX63641] | 43 nM
Cc1nc(-c2ccccc2)c2c(n1)[C@@]1(C)C=C(C#N)C(=O)C(C)(C)[C@@H]1CC2 [TX63529] | 46 nM
Cc1ccccc1-c1c2c(nn1C)[C@@]1(C)C=C(C#N)C(=O)C(C)(C)[C@@H]1CC2 [TX63508] | 33 nM
C[C@@H]1C(=O)C(C#N)=C[C@]2(C)c3nn(C)c(-c4cccc(F)c4)c3CC[C@@H]12 [TX63659] | 8.1 nM

Same assay, conditions: RAW264.7 cells, 2 h pre-treatment (0-200 nM), then IFNγ 24 h; normalized to cell viability

SMILES | IC50
COc1nc(OC)c2c(n1)[C@@]1(C)C=C(C#N)C(=O)[C@@H](C)[C@@H]1CC2 [TX63793] | 2.5 nM
Cn1cc2c(n1)[C@@]1(C)C=C(C#N)C(=O)C(C)(C)[C@@H]1CC2 [TX63432] | 166 nM
